Experiments:
healthy male subjects [1] = assay: Ketamine-induced changes in fMRI BOLD signal during resting state; format: in vivo, human
Description: (§1) Subjects checked in on day − 1 of each treatment period during which vital signs, electrocardiogram (ECG), and laboratory safety tests were repeated. On day 1 of each treatment period, subjects received a 3-, 10-, or 30-mg TAK-063 dose or placebo tablets. Participants then relaxed, slept, or watched movies while remaining in the research environment. Ketamine (0.12 mg/kg intravenous bolus over 60 s followed by a continuous infusion of 0.31 mg/kg/h over approximately 150 min) was administered 4 h after TAK-063 or placebo (Fig. 1). This ketamine dose was based on a previous study that achieved steady-state concentrations of 75 ng/mL and provided a robust BOLD signal with minimal psychotomimetic symptoms (De Simoni et al. [2013]).
(§2) The scanning protocol for the current study was very comprehensive and included multiple MR approaches. This publication reports the BOLD fMRI data for the working memory task, but also resting state fMRI. The magnetic scanning portion of the neuroimaging test battery was initiated 20 min before ketamine dosing. Imaging was performed using a 3 Tesla Siemens Trio scanner. The MR scanning protocol was initiated 20 min before ketamine dosing; prior to scanning, a structural magnetization prepared rapid gradient echo (MPRAGE) scan was collected. As part of the scanning protocol, each subject received 20 min of scanning − 10 min arterial spin labeling (ASL) plus 10 min resting BOLD prior to ketamine infusion. After ketamine infusion, the resting state fMRI BOLD acquisition continued for an additional 10 min. Next, a Spatial Working Memory task-induced fMRI BOLD acquisition was performed for 15 min. Following these BOLD acquisitions, another 10 min ASL scan was acquired and a 10-min T1 relaxometry scan was conducted. The MR scanning sequence ended with a 5-min MPRAGE acquisition.
Fifty sequential gradient-echo echoplanar images (EPIs) sensitive to blood oxygenation level-dependent (BOLD) signal were collected in contiguous slices of 6-mm thickness, with 3000-ms repetition time, 40-ms echo time, 20 × 20-cm field of view, a 64 × 64 image matrix, 70° flip angle, and an in-plane resolution of 3 × 3 mm. A working memory challenge based on the expectancy A-X Continuous Performance Test (AX-CPT) paradigm was presented. The AX-CPT task was implemented in Eprime and presents 144 trials in four blocks of 36 trials. Before scanning, participants practiced the task (Barch et al. [2001]; MacDonald et al. [2003]).
We conducted a number of pre-processing steps to standardize examination of data after acquisition. These steps included (a) using the anatomical image (T1 weighted MPRAGE acquired for each subject at the beginning of the imaging session) to determine the parameters for spatial normalization to the EPI template image supplied with statistical parametric mapping (SPM) using a 12-parameter transformation; (b) registering functional images to correct for subject movement during the experimental paradigm; (c) normalizing functional images to transform images from analyzed subjects into the same standard space; (d) smoothing images (8-mm full width at half maximum [FWHM]) to minimize normalization artifacts and improve signal to noise ratio; (e) applying a high pass filter of 1200 s to the data following spatial smoothing to minimize the influence of very low frequency noise present in fMRI BOLD data without distorting the ketamine response profile. […]

healthy male subjects [2] = assay: Ketamine-induced changes in fMRI BOLD signal during working memory task (AX-CPT); format: in vivo, human
Description: as §1
as §2, with “acquisition. […]” for “acquisition.”
The functional imaging analyses for the working memory task was performed using SPM8 (Wellcome Department of Cognitive Neurology, London, UK). […] Data from each subject for each task were analyzed with a fixed box-car function convolved with a model hemodynamic response function. […]

[3] = Pharmacokinetics of TAK-063 in plasma after single oral dose; format: in vivo, human
rats = system: rats; set-up: method as in Suzuki et al. [2016]; conditions: ref Suzuki et al. [2016]; cited from earlier work
[4] = system: rodent models of cognitive impairment; set-up: method as in Shiraishi et al. [2016]; conditions: ref Shiraishi et al. [2016]; cited from earlier work
[5] = system: individuals with schizophrenia; set-up: method as in Macek et al. [2017]; conditions: 20 mg; 6-week phase 2 study; ref Macek et al. [2017]; cited from earlier work
[6] = system: patients with schizophrenia; conditions: cited from earlier work

With COc1cn(-c2ccc(-n3cccn3)cc2F)nc(-c2ccnn2-c2ccccc2)c1=O [TAK-063] the “effect sizes at the 10-mg dose” value (healthy male subjects [1]; 10 mg, ketamine-induced BOLD changes, resting state) was “generally smaller relative to the effects of other dose groups”, the “effect on ketamine-induced changes in resting state fMRI BOLD signals” value (healthy male subjects [1]; many key regions examined, 3-30 mg) was “meaningful effect attenuating ketamine-induced changes” and the “effect size in right substantia nigra, left thalamus and left ventrolateral prefrontal cortex” value (healthy male subjects [2]; 10 mg, working memory task, small non-negative effects) was under 0.15. The “effect in left amygdala” value (healthy male subjects [2]; 30 mg, working memory task) was “small non-negative effect”, the “effect on Cohen's effect size for fMRI BOLD signal during working memory task” value (healthy male subjects [2]; across all doses) was “decreased the Cohen’s effect size for fMRI BOLD signal in many brain regions” and the “Dose proportionality of Cmax and AUC” value ([3]; dose range 3-30 mg) was “close to dose proportional increase in exposure”. The median tmax ([3]; single oral dose, plasma, 3-30 mg) was 3 h, the “MK-801-induced effects on hyperactivity” value (rats) was “reversed” and the “MK-801 and phencyclidine-induced effects on spatial working memory, attentional set-shifting, and executive function” value [4] was “reversed”. The “change from baseline in PANSS score at week 6 vs placebo (primary endpoint)” value [5] was “did not meet its primary endpoint”, the “safety and tolerability in clinical studies” value ([6]; ref Goldsmith et al. [2017], Tsai et al. [2016]) was “safe and well tolerated” and the “effects in patients with schizophrenia” value ([6]; ref Macek et al. [2016a], [b]) was “increases in electroencephalogram (EEG) gamma power, improvements in mismatch negativity, and some improvements in cognition”.

Source: publication PMC7018803, “A randomized, placebo-controlled, phase 1 study to evaluate the effects of TAK-063 on ketamine-induced changes in fMRI BOLD signal in healthy subjects” (Psychopharmacology, 2019)
